In this experiment the test system is murine melanocytes B16-F10. Nature of the experiment: Tests on B16 melanocytes, dosing of the intracellular melanin. Format: cell-based. As to conditions: B16-F10 cells incubated 24 h at 37° C.; intracellular melanin content, absorbance 405 nm. As to the method:
[…] model tests on melanin-producing cells, the murine melanocytes B16-F10, have been necessary. The decrease in the cellular tyrosinase activity, associated with a reduction of the intracellular melanin content, while preserving the survival of the cells by non-cytotoxic concentrations, have then been investigated. For this purpose, the B16-F10 cells have been seeded into 24-well plates, and incubated for 24 h at 37° C. with several concentrations of different selected raw materials. […] Afterwards, the cells are lysed, and centrifuged. In turn, the cell pellet is dissolved by a NaOH 1N solution and incubated for 1 hour at 70° C. before being deposited in a 96-well plate put in the spectrophotometer at 405 nm. Afterwards, a comparison with the absorbance of a standard melanin calibrated range allows determining the intracellular melanin content of each condition and checking on the inhibitor effect of the melanogenesis by the different raw materials.

Regarding `O=c1cc(CO)occ1O` [Kojic acid, kojic acid], the “Effective IC50” value stood at 214 ppm.

Source of the values: patent US11654101B2, “Use of magnolia, juniper or violet absolute in cosmetics for depigmenting the skin” (ROBERTET S.A., priority 2017, dated 2023).
